Measurements from patent US20070004691A1, “Antitumoral combinations containing et-743 and a cruciferous and a cruciferous indole compound” (priority 2003, published 2007).

Columns and labels:
female Wistar rats = assay: Study of hepatotoxicity: protection against ET-743-induced liver damage; type: in vivo, rat
Experimental: I3C at 0.1 or 0.5% or di-indolyl methane (DIM) at 0.2% were added to the diet of female Wistar rats (230-260 g) seven days prior to treatment with a hepatotoxic dose of ET-743 (40 μg/kg, iv. via the lateral tail vein). This amount constitutes doses equivalent to approximately 80 and 400 mg/kg I3C per day. Control animals received the unaltered diet and/or water as the vehicle for ET-743. The dose of DIM was based on the following consideration: DIM is the product of the condensation of two molecules of I3C, therefore assuming all of the I3C in the 0.5% dose group dimerises to form DIM, the maximal amount of DIM which could theoretically be generated is half of the amount of I3C in the diet. Each treatment group comprised 4 animals. Hepatic changes were studied by assessment of alterations in plasma levels of bilirubin and liver enzymes ALP and aspartate aminotransferase (AST) and by conventional histopathological investigation of liver tissue.

13762 tumor = assay: Study of antitumor activity: 13762 tumor fragments implanted sc; type: in vivo, rat; conditions: for tumor weight inhibition (TWI): day 20, I3C 0.5% in diet from implantation, ET-743 40 μg/kg i.v. on day 6, female Fischer rats, weight from caliper diameters; for decrease of terminal tumor weight: tumors excised and weighed at termination of the experiment (day 20), I3C 0.5% diet, ET-743 40 μg/kg i.v.
Experimental: (§1) 13762 tumor fragments (100-200 mg weight) were implanted (sc) into the flank of female Fischer rats (100-120 g). […] Properties of the 13762 tumour have previously been described for example in Braunschweiger P. G., and Schiffer L. M. 1980, J. Natl. Cancer Inst., 64: 671-674: “Growth kinetics of mammary tumor 13762 in rats previously cured by chemotherapy”. Tumor weight (TW) was calculated on each day via tumor diameters, using a Vernier caliper and the formula: TW (in mg)=tumor volume (mm3)=d^2×D/2, in which d and D represent the shortest and longest diameter, respectively. Rats (9-10 per group) received I3C in their diet (0.5%) from the day of tumor implantation to the end of the experiment. ET-743 (40 μg/kg, i.v.) was administered on day 6 post tumor implantation.

[1] = Study of ET-743 levels in liver and plasma (HPLC-ESI-MS/MS); type: in vivo, rat; conditions: for AUC of ET-743 in liver (0-24 h after dosing), mean: rat liver; for AUC of ET-743 in plasma (0-24 h after dosing), mean: rat plasma
Experimental: We tested the hypothesis that I3C pretreatment alters clearance of ET-743 from plasma and liver in vivo. Blood samples and liver tissue were collected from rats before and up to 24 h after administration of ET-743 (40 μg/kg iv.) with or without treatment with I3C (0.5% in the diet) given from 6 days prior to ET-743. Blood samples (by cardiac puncture) and liver tissue were collected before and at 0.5, 1, 3, 6, 12 and 24 h post treatment. Blood was placed in heparinized tubes, and plasma was obtained by centrifugation. An aliquot (0.3 ml) was mixed with 0.7 ml ammonium acetate buffer (0.2 M, pH 5.0). Liver tissue was homogenized (1:1) in water. Levels of ET-743 were measured by HPLC coupled to electrospray ionization tandem mass spectrometry in the plasma and liver samples.

[2] = tested on: human tumour xenografts grown in athymic mice; conditions: including melanoma and ovarian and breast carcinoma; cited from earlier work
[3] = tested on: mice, rats, dogs and monkeys; conditions: plasma liver-specific enzymes, cholangitis; cited from earlier work
patients = conditions: prolonged infusion over 24-72 hr; cited from earlier work
female Fischer rats = assay: Protection against pathological manifestations of ET-743 in the liver of tumor-bearing Fischer rats; type: in vivo; conditions: 0.5% dietary I3C, compared with Wistar rat
Experimental: as §1

rat livers = assay: Hepatoprotection by modulators of drug metabolism against ET-743; conditions: compared with dexamethasone
female rat = conditions: high-dose dexamethasone pretreatment; cited from earlier work
[4] = ET-743 alone, 40 μg/kg iv, female Wistar rats
[5] = ET-743 40 μg/kg iv in combination with I3C (0.5% in the diet from 6 days prior)
[6] = I3C 0.1% in diet plus ET-743 40 μg/kg iv

In the case of COc1cc2c(cc1O)CCN[C@]21CS[C@@H]2c3c(OC(C)=O)c(C)c4c(c3[C@H](COC1=O)N1C2C2c3c(cc(C)c(OC)c3O)C[C@@H]([C@@H]1O)N2C)OCO4 (stereo partly shown) [ET-743, Ecteinascidin 743], the “activities of ALP and AST” value (female Wistar rats; [4]) is reported as “elevated”, the “plasma levels of bilirubin” value (female Wistar rats; [4]) is reported as “dramatically raised” and the liver pathology (female Wistar rats; ET-743 alone, 40 μg/kg iv, day 3 and day 9) is reported as “severe bile duct damage on day 3 and biliary sclerosis on day 9”. The “tumor weight inhibition (TWI)” value (13762 tumor) was 62%, the “decrease of terminal tumor weight” value (13762 tumor) was 54% and the “AUC of ET-743 in liver (0-24 h after dosing), mean” value [1, 5] was 563 ngxh/ml. The “AUC of ET-743 in plasma (0-24 h after dosing), mean” value [1, 5] was 1.9 ngxh/ml, the “AUC of ET-743 in liver (0-24 h after dosing), mean” value ([1]; ET-743 alone, 40 μg/kg iv) was 280 ngxh/ml and the “AUC of ET-743 in plasma (0-24 h after dosing), mean” value ([1]; ET-743 alone, 40 μg/kg iv) was 4.7 ngxh/ml. For the same compound, the antineoplastic activity [2] was “potent”, the “side effect in preclinical acute toxicity studies” value [3] was “liver toxicity” and the “side effects in patients” value (patients) was “myelotoxic and hepatotoxic”.
In the case of OCc1c[nH]c2ccccc12 [I3C, 1H-indole-3-methanol], the “plasma bilirubin levels compared to ET-743 alone” value (female Wistar rats; I3C 0.1% in diet (approx. 80 mg/kg per day) from seven days prior to ET-743 40 μg/kg iv) is reported as “moderately reduced”, the “AST and ALP activity compared with levels induced by ET-743 alone” value (female Wistar rats; [6]) is reported as “did not decrease” and the “pathological manifestations of liver damage compared to ET-743 only” value (female Wistar rats; [6]) is reported as “only marginally less severe”. The “protection as reflected by the biochemical indices” value (female Wistar rats; I3C 0.5% in diet (approx. 400 mg/kg per day) plus ET-743 40 μg/kg iv) was “complete”, the “protection adjudged on the basis of liver pathology” value (female Wistar rats; I3C 0.5% in diet plus ET-743 40 μg/kg iv, 3 and 9 days) was “substantial, albeit not complete” and the “weight of the animals or liver function (biochemical indices or pathology)” value (female Wistar rats; consumption of I3C on its own in the diet) was “did not affect”. For the same compound, the “tumor weight inhibition (TWI)” value (13762 tumor) was 35%, the “decrease of terminal tumor weight” value (13762 tumor) was 43% and the “protection against the pathological manifestations of ET-743 in the liver” value (female Fischer rats) was “same degree of protection”.
For CC(=O)N[C@@H](CS)C(=O)O [N-acetylcysteine], the “amelioration of ET-743 mediated hepatotoxicity” value (“amelioration” below) (rat livers) was “failed to protect”.
For C[C@@H]1C[C@H]2[C@@H]3CCC4=CC(=O)C=C[C@]4(C)[C@@]3(F)[C@@H](O)C[C@]2(C)[C@@]1(O)C(=O)CO [dexamethasone], the “hepatic levels of ET-743 after pretreatment” value (female rat) is listed as “dramatic reduction”.
In the case of CCC1(c2ccccc2)C(=O)NC(=O)NC1=O [phenobarbitone], the “amelioration” value (rat livers) is reported as “weak”.
In the case of O=c1cc(-c2ccccc2)oc2ccc3ccccc3c12 [β-naphthoflavone], the “amelioration” value (rat livers) is reported as “persisted only for a short term”.
